According to ChEMBL document CHEMBL5316344, “Homologation of the Alkyl Side Chain of Antimitotic Phenyl 4-(2-Oxo-3-alkylimidazolidin-1-yl)benzenesulfonate Prodrugs Selectively Targeting CYP1A1-Expressing Breast Cancers Improves Their Stability in Rodent Liver Microsomes” (J Med Chem, 2023):
Activity calls are given as the source filed them. The calls are words filed in the database; no cut-off is given here.

Experiments:
[1] = Selectivity ratio, ratio of IC50 for antiproliferative activity against human HT-1080 cells transfected with empty vector to IC50 for antiproliferative activity against human HT-1080 cells expressing CYP1A1; assay type: functional
[2] = target: T1, Tubulin (Homo sapiens) (UniProt P68371+Q9H4B7+P0DPH7+P68366+Q13509+Q71U36+P04350+Q3ZCM7+P07437+P68363+Q9BQE3+Q6PEY2+Q13885+Q9BVA1+Q9BUF5); experiment: Disruption of microtubules in human MCF7 cells expressing CYP1A1 assessed as cytoskeleton disruption at 65 nM measured after 48 hrs by DAPI staining based fluorescence microscopic analysis; assay type: cell-based
[3] = Stability in human liver microsomes assessed as half life incubated for 60 mins by HPLC analysis; assay type: ADME, Microsome
[4] = Selectivity ratio, ratio of IC50 for antiproliferative activity against human HT-29 cells to IC50 for antiproliferative activity against human MCF7 cells expressing CYP1A1; assay type: functional
[5] = Selectivity ratio, ratio of IC50 for antiproliferative activity against human M21 cells to IC50 for antiproliferative activity against human MCF7 cells expressing CYP1A1; assay type: functional
[6] = Stability in mouse liver microsomes assessed as intrinsic clearance incubated for 60 mins by HPLC analysis; assay type: ADME, Microsome; details: read-out: CLH
[7] = system: MCF7; experiment: Antiproliferative activity against human MCF7 cells expressing CYP1A1 assessed as cell growth inhibition incubated for 48 hrs by sulforhodamine B assay; assay type: functional, cell-based; details: MCF7, 48 h
[8] = Stability in rat liver microsomes assessed as intrinsic clearance incubated for 60 mins by HPLC analysis; assay type: ADME, Microsome; details: read-out: CLH
[9] = system: MCF7; experiment: Induction of cell cycle arrest in human MCF7 cells expressing CYP1A1 assessed as accumulation of cells at S phase at 145 nM incubated for 48 hrs by DAPI staining based flow cytometric analysis (reference value: 11+/-1 %); assay type: functional
[10] = Stability in human liver microsomes assessed as intrinsic clearance incubated for 60 mins by HPLC analysis; assay type: ADME, Microsome; details: read-out: CLH
[11] = Stability in rat liver microsomes assessed as half life incubated for 60 mins by HPLC analysis; assay type: ADME, Microsome
[12] = system: MCF7; experiment: Induction of cell cycle arrest in human MCF7 cells expressing CYP1A1 assessed as accumulation of cells at G0/G1 phase at 145 nM incubated for 48 hrs by DAPI staining based flow cytometric analysis (reference value: 74+/-2 %); assay type: functional
[13] = Selectivity ratio, ratio of IC50 for antiproliferative activity against human HT-1080 cells to IC50 for antiproliferative activity against human HT-1080 cells expressing CYP1A1; assay type: functional
[14] = system: M21; experiment: Antiproliferative activity against human M21 cells assessed as cell growth inhibition incubated for 48 hrs by sulforhodamine B assay; assay type: functional, cell-based; details: M21, 48 h
[15] = system: MCF7; experiment: Induction of cell cycle arrest in human MCF7 cells expressing CYP1A1 assessed as accumulation of cells at G2/M phase at 145 nM incubated for 48 hrs by DAPI staining based flow cytometric analysis (reference value: 16+/-2 %); assay type: functional
[16] = Stability in mouse liver microsomes assessed as half life incubated for 60 mins by HPLC analysis; assay type: ADME, Microsome
[17] = system: HT-1080; experiment: Antiproliferative activity against human HT-1080 cells expressing CYP1A1 assessed as cell growth inhibition incubated for 48 hrs by sulforhodamine B assay; assay type: functional, cell-based; details: HT-1080, 48 h
[18] = system: HT-29; experiment: Antiproliferative activity against human HT-29 cells assessed as cell growth inhibition incubated for 48 hrs by sulforhodamine B assay; assay type: functional, cell-based; details: HT-29, 48 h
[19] = system: HT-1080; experiment: Antiproliferative activity against human HT-1080 cells assessed as cell growth inhibition incubated for 48 hrs by sulforhodamine B assay; assay type: functional, cell-based; details: HT-1080, 48 h
[20] = target: T2, Cytochrome P450 1A1 (Homo sapiens, UniProt P04798); experiment: Binding affinity to human CYP1A1 assessed as inhibition of conversion of 7-ethoicyresorufin into fluorescent resorufin by measuring inhibition constant preincubated for 5 mins followed by […] addition measured every minute for 15 mins by EROD assay; assay type: ADME
T2 sequence (P04798 whole entry): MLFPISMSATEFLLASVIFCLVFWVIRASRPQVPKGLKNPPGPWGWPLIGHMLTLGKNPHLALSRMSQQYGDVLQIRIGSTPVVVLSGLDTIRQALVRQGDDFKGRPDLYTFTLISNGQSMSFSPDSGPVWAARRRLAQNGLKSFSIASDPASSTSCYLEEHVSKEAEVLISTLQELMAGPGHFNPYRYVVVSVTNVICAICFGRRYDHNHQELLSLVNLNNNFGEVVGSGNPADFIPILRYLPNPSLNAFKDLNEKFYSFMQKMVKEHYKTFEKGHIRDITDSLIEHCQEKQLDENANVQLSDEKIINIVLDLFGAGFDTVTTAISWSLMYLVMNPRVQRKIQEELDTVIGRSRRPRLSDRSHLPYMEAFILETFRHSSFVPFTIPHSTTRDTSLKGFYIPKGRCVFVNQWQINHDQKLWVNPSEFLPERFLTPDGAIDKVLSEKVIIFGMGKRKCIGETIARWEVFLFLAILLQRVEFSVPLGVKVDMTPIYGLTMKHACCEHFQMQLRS

[21] = system: HT-1080; experiment: Antiproliferative activity against human HT-1080 cells transfected with empty vector assessed as cell growth inhibition incubated for 48 hrs by sulforhodamine B assay; assay type: functional, cell-based; details: HT-1080, 48 h
[22] = system: HT-1080; experiment: Antitumor activity against human HT-1080 cells xenografted in chick embryo assessed as reduction in tumor wet weight at 1 ug, iv incubated for 17 days by CAM assay; assay type: functional; design: scale not given: the % may be the effect or the level left; details: dose 1 µg, time 17 day
[23] = system: HT-1080; experiment: Antitumor activity against human HT-1080 cells transfected with empty vector xenografted in chick embryo assessed as reduction in tumor wet weight at 1 ug, iv incubated for 17 days by CAM assay; assay type: functional; design: scale not given: the % may be the effect or the level left; details: dose 1 µg, time 17 day
[24] = system: HT-1080; experiment: Antitumor activity against human HT-1080 cells expressing CYP1A1 xenografted in chick embryo assessed as reduction in tumor wet weight at 1 ug, iv incubated for 17 days by CAM assay; assay type: functional; design: scale not given: the % may be the effect or the level left; details: dose 1 µg, time 17 day
[25] = system: MCF7; experiment: Induction of cell cycle arrest in human MCF7 cells expressing CYP1A1 assessed as accumulation of cells at S phase at 30 nM incubated for 48 hrs by DAPI staining based flow cytometric analysis (reference value: 11+/-1 %); assay type: functional
[26] = Toxicity in chick embryo xenografted with human […] cells assessed as mortality at 1 ug, iv incubated for 17 days; assay type: organism-based, Gallus gallus; details: chicken, in vivo, 408 h, dose 1 µg, time 17 day
[27] = Toxicity in chick embryo xenografted with human […] cells transfected with empty vector assessed as mortality at 1 ug, iv incubated for 17 days; assay type: organism-based, Gallus gallus; details: chicken, in vivo, 408 h, dose 1 µg, time 17 day
[28] = system: MCF7; experiment: Induction of cell cycle arrest in human MCF7 cells expressing CYP1A1 assessed as accumulation of cells at G2/M phase at 30 nM incubated for 48 hrs by DAPI staining based flow cytometric analysis (reference value: 16+/-2 %); assay type: functional
[29] = system: MCF7; experiment: Induction of cell cycle arrest in human MCF7 cells expressing CYP1A1 assessed as accumulation of cells at G0/G1 phase at 30 nM incubated for 48 hrs by DAPI staining based flow cytometric analysis (reference value: 74+/-2 %); assay type: functional
[30] = Toxicity in chick embryo xenografted with human […] cells expressing CYP1A1 assessed as mortality at 1 ug, iv incubated for 17 days; assay type: organism-based, Gallus gallus; details: chicken, in vivo, 408 h, dose 1 µg, time 17 day
[31] = system: MCF7; experiment: Induction of cell cycle arrest in human MCF7 cells expressing CYP1A1 assessed as accumulation of cells at S phase at 1100 nM incubated for 48 hrs by DAPI staining based flow cytometric analysis (reference value: 11+/-1 %); assay type: functional
[32] = system: MCF7; experiment: Induction of cell cycle arrest in human MCF7 cells expressing CYP1A1 assessed as accumulation of cells at G2/M phase at 1100 nM incubated for 48 hrs by DAPI staining based flow cytometric analysis (reference value: 16+/-2 %); assay type: functional
[33] = target: T1, Tubulin (Homo sapiens); experiment: Disruption of microtubules in human MCF7 cells expressing CYP1A1 assessed as cytoskeleton disruption at 1305 nM measured after 48 hrs by DAPI staining based fluorescence microscopic analysis; assay type: cell-based
[34] = system: MCF7; experiment: Induction of cell cycle arrest in human MCF7 cells expressing CYP1A1 assessed as accumulation of cells at G0/G1 phase at 1100 nM incubated for 48 hrs by DAPI staining based flow cytometric analysis (reference value: 74+/-2 %); assay type: functional
[35] = system: MCF7; experiment: Induction of cell cycle arrest in human MCF7 cells expressing CYP1A1 assessed as accumulation of cells at S phase at 690 nM incubated for 48 hrs by DAPI staining based flow cytometric analysis (reference value: 11+/-1 %); assay type: functional
[36] = target: T1, Tubulin (Homo sapiens); experiment: Disruption of microtubules in human MCF7 cells expressing CYP1A1 assessed as cytoskeleton disruption at 970 nM measured after 48 hrs by DAPI staining based fluorescence microscopic analysis; assay type: cell-based
[37] = system: MCF7; experiment: Induction of cell cycle arrest in human MCF7 cells expressing CYP1A1 assessed as accumulation of cells at G0/G1 phase at 690 nM incubated for 48 hrs by DAPI staining based flow cytometric analysis (reference value: 74+/-2 %); assay type: functional
[38] = system: MCF7; experiment: Induction of cell cycle arrest in human MCF7 cells expressing CYP1A1 assessed as accumulation of cells at G2/M phase at 690 nM incubated for 48 hrs by DAPI staining based flow cytometric analysis (reference value: 16+/-2 %); assay type: functional

Compound	Ratio IC50 [1]	half-life [3]	Ratio IC50 [4]	Ratio IC50 [5]	microsomal CLint [6]	IC50 [7]	microsomal CLint [8]	microsomal CLint [10]	half-life [11]	Ratio IC50 [13]	IC50 [14]	half-life [16]	IC50 [17]	IC50 [18]	IC50 [19]	Ki [20]	IC50 [21]	further results
CCCCCN1CCN(c2ccc(S(=O)(=O)Oc3cc(Cl)cc(Cl)c3)cc2)C1=O	>167	2 h	>100	>100	12.5 µL/min/mg	50 nM	9 µL/min/mg	12 µL/min/mg	2.67 h	152	> 5000 nM	1.85 h	30 nM	> 5000 nM	4570 nM	1200 nM	> 5000 nM	Activity [2]: Active; Activity [9]: 17%; Activity [12]: 49%; Activity [15]: 34%
CCCCN1CCN(c2ccc(S(=O)(=O)Oc3cc(OC)c(OC)c(OC)c3)cc2)C1=O	137	1.53 h	>172	83	77 µL/min/mg	29 nM	77 µL/min/mg	15 µL/min/mg	0.302 h	200	2400 nM	0.3 h	6 nM	> 5000 nM	1200 nM	140 nM	820 nM	Activity [22]: 85%; Activity [23]: 108%; Activity [24]: 51%; Activity [25]: 11%; Activity [26]: Non-Toxic; Activity [27]: Non-Toxic; Activity [28]: 51%; Activity [29]: 38%; Activity [30]: Non-Toxic
CCCCCN1CCN(c2ccc(S(=O)(=O)Oc3cccc(Cl)c3)cc2)C1=O	>139	4.83 h	>31	>31	11 µL/min/mg	400 nM	12 µL/min/mg	5 µL/min/mg	1.83 h	76	> 12500 nM	2.17 h	90 nM	> 12500 nM	6850 nM	600 nM	> 12500 nM	Activity [31]: 13%; Activity [32]: 42%; Activity [33]: Active; Activity [34]: 45%
CCCCCN1CCN(c2ccc(S(=O)(=O)Oc3cccc(I)c3)cc2)C1=O	>417	1.28 h	>90	>90	15 µL/min/mg	140 nM	24 µL/min/mg	19 µL/min/mg	1.03 h	137	> 12500 nM	1.55 h	30 nM	> 12500 nM	4110 nM	190 nM	> 12500 nM	Activity [35]: 18%; Activity [36]: Active; Activity [37]: 37%; Activity [38]: 45%
